The source of these data is US20060217321A1, “Compositions to improve tic disorders” (priority 2005, published 2006).

The subject of data set [1] is tic disorders. In words: Test Case 3: a case with improved tic disorder. Type of data set: in vivo, human. As to conditions: patient; 0.8 g theanyl-theanine daily for 30 days. The source says: <Test Case 3> A Case with Improved Tic Disorder
Patient: child; height 121 cm; body weight 20 kg
Chief complaint: repetitive guttural
They were diagnosed as having tics.
The parent disciplined the child by scolding. They were pressed with child-rearing and housework and had little free time; thus, they were always nagging due to frustration. In July 1990, the patient developed involuntary movements of shaking their shoulders up and down, and in addition, repetitive guttural. In Sep. 6, 1990, the patient first visited the clinic. The affected child was thin with abdominal palpitation and spasms of the musculus rectus abdominis. Since October, the patient received 8 tablets combined with theanyl-theanine in example 5 (0.8 g theanyl-theanine) daily for 30 days.

In data set [2] the test system is tic disorders. In words: Test Case 1: a case with improved tic disorder. Type of data set: in vivo, human. As to conditions: for effect of earlier drug therapy on tic symptoms (history): patient history before theanine. The text has this: <Test Case 1> A Case with Improved Tic Disorder
Patient: (Sixth grade elementary school student);
Chief complaint: shaking hands and head
History: Since being elected as temporary class representative of the fourth grade class of elementary school, the patient had blinking eyes and subsequently shook their face and shoulders; thus, they visited a nearby hospital and received diazepam. […] In the following year, around the time of moving to Osaka, the patient suffered a relapse of symptoms of shaking their face and shoulders again and thus visited the pediatric department of O hospital and received haloperidol.

The subject of another data set is Tourette's disorder. In words: Test Case 2: a case with improved Tourette's disorder. Type of data set: in vivo, human. The source says:
<Test Case 2> A Case with Improved Tourette's Disorder
Patient: child; body weight: 43 kg
The tics were milder when they were in school or with others, and were more frequently observed in the presence of only their family. (in the third semester of the sixth grade), they visited our clinic worrying about bullying at their junior high school. […] In addition, the patient continuously moved their hands and legs and tended to be restlessly absent-mindedly hyperactive.
Psychosocial case history: The patient was always crying due to inherent sensitivity; thus, their parent felt anxious about child-rearing. They were severely afraid of strangers and timid, and often cried for fear. […] They often cut into others' conversation and was too talkative. Their parent can get along with their younger sibling casually, but is feeling awkwardness and pain with the patient due to the lack of closeness. Their parent is not nagging so much, and seems to accept the patient. Clinical course: The patient was diagnosed as having Tourette's disorder, and the disease was explained to their parents. To alleviate the symptoms, haloperidol (trade name: Serenase (trademark); Dainippon Pharmaceutical Co. Ltd.) was used.
The administration of theanine is scheduled to be continued until the end of puberty. The patient has joined their junior high school track club, and has tics, although unnoticeable. The patient has become a bit disobedient and often falls silent, but is highly motivated with study.

A further data set relates to mice. The format is in vivo. As to conditions: oral administration of 5 g/kg.

Residues, ends and D or L forms follow the SMILES beside them.

Regarding `CCNC(=O)CC[C@H](NC(=O)[C@@H](N)CCC(=O)NCC)C(=O)O` [theanyl-theanine] (H-Glu(NHEt)-Glu(NHEt)-OH), the adverse effects result in the data set with tic disorders [1] is listed as “no adverse effects”.
`CN1C(=O)CN=C(c2ccccc2)c2cc(Cl)ccc21` [diazepam]: the “effect of earlier drug therapy on tic symptoms (history)” value with tic disorders [2] (patient) was “no effect”.
Regarding `O=C(CCCN1CCC(O)(c2ccc(Cl)cc2)CC1)c1ccc(F)cc1` [haloperidol], the “adverse effects of earlier drug therapy (history)” value in the data set on tic disorders [2] (patient, increased dosage, patient history) is recorded as “speech defect”. Also, the “effect of earlier drug therapy on tic symptoms (history)” value in the data set with tic disorders [2] (patient) is recorded as “insufficient effect”. In addition, the “adverse effects of earlier drug therapy” value in the data set with Tourette's disorder (patient, 0.25 mg to 0.5 mg) is “drowsiness was caused as an adverse effect”. Besides, the “symptoms of Tourette's disorder under earlier drug therapy” value with Tourette's disorder (patient, dosage gradually increased from 0.25 mg to 0.5 mg) was “alleviated the symptoms such as tics and restlessness”.
For `CCNC(=O)CC[C@H](N)C(=O)O` [theanine, L-theanine], the “death or abnormality in general conditions and body weight” value in the data set with mice is “neither death nor abnormality in general conditions and body weight was observed”. For the same compound, the adverse effects entry in the data set on tic disorders [2] (in vivo) and in the data set on Tourette's disorder (in vivo) was “no adverse effects” in each case.
